Assays:
CXCR4 [1] = target: T1, CXCR4 (Homo sapiens, UniProt P61073); assay: Inhibition of intracellular calcium mobilization (SupT1 cells, SDF-1α, Fluo-4); format: cell-based; conditions: 50 nM SDF-1α
Procedure: 3. Experimental method: the cell line used in this assay was SupT1. Prior to the experiment, the cells were collected and washed with an experimental buffer (an HBSS buffer containing 20 mM HEPES), and then incubated with a buffer containing 4 μM Fluo-4 and 1 mM probenecid sodium for 30 min at 37° C., after which the residual dye was washed away, and the cells were suspended to a concentration of 2×10^6 cells/ml. Afterwards, 200 μl of the cell suspension was taken and added to a black 96-well plate, and absorption values of the cells at 494 nmEX/516 nmEM were recorded. Subsequently, different concentrations of compound were added and mixed uniformly, and the baseline was recorded. Thereafter, 50 nM of the SDF-1α was added and mixed uniformly. Signals of calcium ions were recorded, and the differences in fluorescence intensity between a group without addition of the compound and groups added with different concentrations of the compound were observed. 4.

CXCR4 [2] = target: T1, CXCR4; assay: Inhibition of CXCR4 induced cell migration (SupT1 cells, SDF-1α, transwell); format: cell-based; conditions: 2 nM SDF-1α, concentration-dependent, FIG. 1
Procedure: 1. Experimental method: the assay on the CXCR4 induced cell migration was detected using SupT1 cell line which naturally expresses the CXCR4. SupT1 cells cultured and suspended in RPMI 1640 (containing 10% fetal bovine serum, 100 IU penicillin and 0.1 mg/ml streptomycin) were collected and then washed with RPMI 1640 containing 0.5% BSA, after which the cells are counted and suspended to a concentration of 3.0×10^7 cells/ml, and then uniformly mixed with different concentrations of compound. Then, 75 μl of the obtained mixture was taken and added to a tranwell insert, and incubated at 37° C. for 30 min. […] After incubation at 37° C. for 3 hours, the tranwell insert was removed, and 40 μl of CellTiter 96 (Promega) was added to each cell of the lower culture plate. After 1 to 4 hours of incubation, absorption values at 490 nm were detected. The experimental results of each group were obtained by at least three independent experiments, and the inhibition curve was plotted by the GraphPad software. 2.

CXCR4 [3] = target: T1, CXCR4; assay: Binding affinity assay on CXCR4 receptor protein (inhibition of 12G5 monoclonal antibody binding, CHO cells stably transfected with CXCR4); parameters: expressed in transfected cells; host or cells: CHO cells, stably transfected (G418 selection); conditions: 40 min; 0.1 μM compound; inhibition of 12G5 antibody binding to CXCR4 on CHO-CXCR4 cells; read-out: Inhibition ratio interval of compounds at 0.1 μM
Procedure: 3. Experimental method: the cell line used for the affinity activity assay of the CXCR4 was a CHO cell line constructed in vitro and stably transfected with CXCR4. The CHO cell line cultured in DMEM medium (containing 10% fetal bovine serum, 100 IU penicillin, 0.1 mg/ml streptomycin and 0.2 mg/ml G418) was trypsinized, washed, counted, and then suspended in an FACS buffer (PBS containing 0.5% BSA and 0.05% NaN3), followed by being plated in a 96-well plate. Each cell contains 100 μl of the reaction system, which includes 5×10^5 cells, 250 ng/ml 12G5 monoclonal antibody and different concentrations of compound for detection. After incubated on ice for 40 min and washed with the FACS buffer, the reaction system was added with the secondary antibody (anti-mouse FITC-labeled IgG) for further incubation on ice for 30 min and then washed twice with the FACS buffer. Absorption values at 485 nmEX/535 nmEM were measured on a microplate reader (PerkinElmer), and fluorescence intensities were recorded. For each compound, a percentage of the compound that inhibits the binding of the 12G5 monoclonal antibody to the receptor CXCR4, i.e. a binding inhibition ratio at 0.1 μM, was calculated. 4. […] The inhibition ratio of the compounds is divided into the following intervals: 75% to 100% for A, 50% to 74% for B, 25% to 49% for C, and 0 to 24% for D.

[4] = Cytotoxicity assay (CellTiter 96, 72 h); format: cell-based; conditions: human; HEK293 cells, 72 hours incubation
Procedure: 1. Experimental method: the experiment was carried out using HEK293 cell line. The HEK293 cells cultured in DMEM medium (containing 10% fetal bovine serum, 100 IU penicillin and 0.1 mg/ml streptomycin) were trypsinized, counted, and plated in a 96-well plate with each well containing 100 μl suspension and including 3×10^3 cells in total. After culturation in a constant-temperature incubator containing 5% CO2 at 37° C. overnight, different concentrations of the compound were added. After 72 hours of incubation in total, 20 μl CellTiter 96 was added to further incubate for 1 to 4 hours, and then an absorption value at 490 nm was measured on a microplate reader. The changes in cell viability prior to and subsequent to the addition of the compound were observed by comparing the values of the blank control group and the experimental group. 2.

T1 sequence (P61073 whole entry): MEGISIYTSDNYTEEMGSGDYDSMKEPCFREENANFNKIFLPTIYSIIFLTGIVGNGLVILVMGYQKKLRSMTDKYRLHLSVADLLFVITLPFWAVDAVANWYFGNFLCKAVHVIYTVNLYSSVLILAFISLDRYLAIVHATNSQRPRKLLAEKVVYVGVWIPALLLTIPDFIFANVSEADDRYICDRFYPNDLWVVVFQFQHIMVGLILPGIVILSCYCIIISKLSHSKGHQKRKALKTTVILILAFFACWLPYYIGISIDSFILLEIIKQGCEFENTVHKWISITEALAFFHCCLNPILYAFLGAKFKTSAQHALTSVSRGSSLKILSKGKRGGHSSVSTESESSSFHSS

Inhibition of signal of calcium mobilization (CXCR4 [1]; compound at 1.0 μM, FIG. 3) | Inhibition of CXCR4 induced cell migration (CXCR4 [2]) | inhibition at 0.1 µM (CXCR4 [3]) [%] | Inhibition of signal of calcium mobilization (CXCR4 [1]; compound at 0.2 μM, FIG. 2) | SMILES | IC50 at 72 h [4] [µM]
fails to inhibit |  |  |  | c1cc(CN2CCCNCCNCCCNCC2)ccc1CN1CCCNCCNCCCNCC1 [AMD3100, plerixafor, reference compound] | 
 | significant inhibiting ability | 75 to 100 | completely inhibit | N=C(N)NCCC[C@H](NCc1ccccn1)C(=O)NCc1ccc(CNCCCNC2CCCCC2)cc1 [Compound 1] | > 50
 |  | 50 to 74 |  | N=C(N)NCCC[C@H](NC(=O)c1ccc(F)cc1)C(=O)NCc1ccc(CNCCCNC2CCCCC2)cc1 [Compound 2] | > 50
 |  | 0 to 24 |  | N=C(N)NCCC[C@H](NCc1ccccn1)C(=O)NCc1ccccc1 [Compound 3] | 
 |  | 0 to 24 |  | N=C(N)NCCC[C@H](NCc1ccccn1)C(=O)NCc1ccc(CNC2CCCCC2)cc1 [Compound 4] | > 50
 |  | 25 to 49 |  | N=C(N)NCCC[C@H](N)C(=O)NCc1ccc(CNCCCNC2CCCCC2)cc1 [Compound 5] | > 50
 |  | 50 to 74 |  | N=C(N)NCCC[C@@H](NCc1ccccn1)C(=O)NCc1ccc(CNCCCNC2CCCCC2)cc1 [Compound 6] | > 50
 |  | 50 to 74 |  | N=C(N)NCCC[C@H](NC(=O)C1CCC(F)(F)CC1)C(=O)NCc1ccc(CNCCCNC2CCCCC2)cc1 [Compound 7] | > 50
 |  | 50 to 74 |  | N=C(N)NCCC[C@H](NCc1ccc(F)cc1)C(=O)NCc1ccc(CNCCCNC2CCCCC2)cc1 [Compound 8] | > 50
 |  | 75 to 100 |  | CN(C)c1ccc(CN[C@@H](CCCNC(=N)N)C(=O)NCc2ccc(CNCCCNC3CCCCC3)cc2)cc1 [Compound 9] | > 50
 |  | 50 to 74 |  | N=C(N)NCCC[C@H](NCc1cccc2ccccc12)C(=O)NCc1ccc(CNCCCNC2CCCCC2)cc1 [Compound 10] | > 50
 |  | 50 to 74 |  | N=C(N)NCCC[C@H](NCc1ccc(-c2ccccc2)cc1)C(=O)NCc1ccc(CNCCCNC2CCCCC2)cc1 [Compound 11] | > 50
 |  | 0 to 24 |  | N=C(N)NCCC[C@H](NCc1cc(C(F)(F)F)cc(C(F)(F)F)c1)C(=O)NCc1ccc(CNCCCNC2CCCCC2)cc1 [Compound 12] | > 50
 |  | 50 to 74 |  | N=C(N)NCCC[C@H](NCc1ncc[nH]1)C(=O)NCc1ccc(CNCCCNC2CCCCC2)cc1 [Compound 13] | > 50
 |  | 0 to 24 |  | N=C(N)NCCC[C@H](NC1CCCc2cccnc21)C(=O)NCc1ccc(CNCCCNC2CCCCC2)cc1 (some centres unmarked) [Compound 14] | 
 |  | 50 to 74 |  | N=C(N)NCCC[C@H](NC1CCCCC1)C(=O)NCc1ccc(CNCCCNC2CCCCC2)cc1 [Compound 15] | > 20

Inhibition of signal of calcium mobilization (CXCR4 [1]; compound at 1.0 μM, FIG. 3) | Inhibition of CXCR4 induced cell migration (CXCR4 [2]) | inhibition at 0.1 µM (CXCR4 [3]) [%] | Inhibition of signal of calcium mobilization (CXCR4 [1]; compound at 0.2 μM, FIG. 2) | SMILES | IC50 at 72 h [4] [µM]
 |  | 75 to 100 |  | N=C(N)NCCC[C@H](NCC1CCCCC1)C(=O)NCc1ccc(CNCCCNC2CCCCC2)cc1 [Compound 16] | > 50
 |  | 75 to 100 |  | NCCCC[C@H](NCc1ccccn1)C(=O)NCc1ccc(CNCCCNC2CCCCC2)cc1 [Compound 17] | > 50
 |  | 75 to 100 |  | CC(C)NCCCC[C@H](NCc1ccccn1)C(=O)NCc1ccc(CNCCCNC2CCCCC2)cc1 [Compound 18] | > 50
 |  | 75 to 100 |  | O=C(NCc1ccc(CNCCCNC2CCCCC2)cc1)[C@H](CCCCNC1CCCCC1)NCc1ccccn1 [Compound 19] | > 50
 |  | 50 to 74 |  | O=C(NCc1ccc(CNCCCNC2CCCCC2)cc1)[C@H](CCCNC1CCCCC1)NCc1ccccn1 [Compound 20] | > 50
 |  | 75 to 100 |  | O=C(NCc1ccc(CNCCCNC2CCCCC2)cc1)[C@H](Cc1c[nH]cn1)NCc1ccccn1 [Compound 21] | > 50
 |  | 50 to 74 |  | O=C(O)C[C@H](NCc1ccccn1)C(=O)NCc1ccc(CNCCCNC2CCCCC2)cc1 [Compound 22] | > 50
 |  | 75 to 100 |  | C[C@H](NCc1ccccn1)C(=O)NCc1ccc(CNCCCNC2CCCCC2)cc1 [Compound 23] | > 50
 |  | 75 to 100 |  | O=C(NCc1ccc(CNCCCNC2CCCCC2)cc1)[C@H](CO)NCc1ccccn1 [Compound 24] | > 50
 |  | 50 to 74 |  | O=C(NCc1ccc(CNCCCNC2CCCCC2)cc1)[C@H](Cc1ccc2ccccc2c1)NCc1ccccn1 [Compound 25] | > 10
 |  | 75 to 100 |  | O=C(NCc1ccc(CNCCCNC2CCCCC2)cc1)[C@H](Cc1c[nH]c2ccccc12)NCc1ccccn1 [Compound 26] | > 50
 |  | 50 to 74 |  | O=C(NCc1ccc(CNCCCNC2CCCCC2)cc1)[C@H](Cc1ccc(O)cc1)NCc1ccccn1 [Compound 27] | > 50
 |  | 25 to 49 |  | CC(C)C[C@H](NCc1ccccn1)C(=O)NCc1ccc(CNCCCNC2CCCCC2)cc1 [Compound 28] | > 50
 |  | 75 to 100 |  | O=C(NCc1ccc(CNCCCNC2CCCCC2)cc1)[C@@H]1CCCN1Cc1ccccn1 [Compound 29] | > 50
 |  | 75 to 100 |  | O=C(NCc1ccc(CNCCCNC2CCCCC2)cc1)[C@@H]1Cc2ccccc2CN1Cc1ccccn1 [Compound 30] | > 20
 |  | 75 to 100 |  | N=C(N)NCCC[C@H](N)C(=O)N[C@@H](Cc1ccc2ccccc2c1)C(=O)NCc1ccc(CNCCCNC2CCCCC2)cc1 [Compound 32] | > 50

SMILES | Inhibition of signal of calcium mobilization (CXCR4 [1]; compound at 1.0 μM, FIG. 3) | Inhibition of CXCR4 induced cell migration (CXCR4 [2]) | inhibition at 0.1 µM (CXCR4 [3]) [%] | Inhibition of signal of calcium mobilization (CXCR4 [1]; compound at 0.2 μM, FIG. 2) | IC50 at 72 h [4] [µM]
N=C(N)NCCC[C@H](NC(=O)[C@@H](N)Cc1ccc(O)cc1)C(=O)NCc1ccc(CNCCCNC2CCCCC2)cc1 [Compound 31] |  |  | 75 to 100 |  | > 50

From patent US11400083B2, “CXCR4 antagonists with amino acid skeleton, preparation therefor and biomedical use thereof” (Tsinghua University, priority 2017, dated 2022)
